# From ChEMBL document CHEMBL1127314, “A new potent and selective histamine H3 receptor agonist, 4-(1H-imidazol-4-ylmethyl)piperidine” (J Med Chem, 1994)
# How the values were obtained:
# [1] = target: Histamine H3 receptor (Cavia porcellus) (UniProt Q9JI35); assay: KL value determined on H3 receptor
# [2] = target: Histamine H3 receptor (Cavia porcellus) (UniProt Q9JI35); assay: H3 receptor agonistic activity of the compound; format: functional
# [3] = pD2 value was determined on jejunum preparations of eight different animals; format: ADME, tissue-based
# [4] = pKi log value determined for the guinea pig H1 receptor; format: ADME
# Sequence of Histamine H3 receptor (Cavia porcellus) (Q9JI35 whole entry): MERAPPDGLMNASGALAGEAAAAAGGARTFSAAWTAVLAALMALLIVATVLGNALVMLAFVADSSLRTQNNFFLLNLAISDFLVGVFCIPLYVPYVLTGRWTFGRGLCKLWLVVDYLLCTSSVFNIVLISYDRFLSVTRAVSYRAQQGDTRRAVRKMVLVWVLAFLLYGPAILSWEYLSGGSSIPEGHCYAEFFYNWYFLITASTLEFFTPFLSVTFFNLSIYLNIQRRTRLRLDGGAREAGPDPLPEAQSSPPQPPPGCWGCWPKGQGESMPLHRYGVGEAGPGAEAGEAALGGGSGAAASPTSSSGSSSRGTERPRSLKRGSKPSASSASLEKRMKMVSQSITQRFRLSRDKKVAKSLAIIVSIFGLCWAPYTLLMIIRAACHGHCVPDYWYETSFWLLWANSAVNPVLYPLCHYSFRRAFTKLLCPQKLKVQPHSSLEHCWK
SMILES,KL [1],KH [2],pD2 [3],Log Ki [4]
C[C@@H](N)Cc1c[nH]cn1,0.22 µM,4.3 nM,7.8,–
c1nc(CC2CCNCC2)c[nH]1 [IMMEPIP],1.01 µM,2.7 nM,8,-4.79
